# In US20250127778A1, “CANCER IMMUNOTHERAPY COMPOSITION CONTAINING INTERACTION INHIBITOR OF STING AND TRIM29 AS ACTIVE INGREDIENT” (SPARK BIOPHARMA, INC, priority 2021, published 2025):
# Columns and labels:
# [1] = test system: TRIM29-mediated Lys48 polymerized multi-ubiquitination of STING; assay: ELISA detection of STING Lys48 polymerized multi-ubiquitination in HEK293T cells; format: cell-based, human; conditions: with MG132, three hours, FIG. 8
# Experimental: It was confirmed whether the oxopiperazine derivatives of Formulas 1 to 6 increased the intracellular amount by preventing the degradation of STING through TRIM29-mediated Lys48 polymerized multi-ubiquitination (K48 linkage-specific polyubiquitination).
# Specifically, HEK293T cells were seeded in a transparent 6-well plate and cultured for one day. […] At this time, only the effect of the compound was quantitatively detected in a manner of using an analysis value of the sample that was not treated with MG132, a proteasome inhibitor that prevents the removal of ubiquitinated proteins, as a control group and subtracting the analysis value from an analysis value of the sample that was treated with MG132. […] The protein concentration of the supernatant was measured by using Bradford assay reagent. […] To confirm the quantitative concentration, a 5× SDS-PAGE loading buffer (Biosesang) was added at the ratio of the manufacturer to a portion of the sample, and then the resultant was treated at 95° C. for five minutes and analyzed by using the western blotting method described above. […]
# [2] = test system: bone-marrow derived dendritic cells (BMDC) and OT-1 T cells; assay: BMDC antigen presentation to OT-1 T cells with OVA antigen; format: cell-based, mouse; conditions: OVA antigen directly treated, FIG. 18
# Experimental: It was confirmed that the compound of Formula 1 increased the antigen presentation efficacy of bone-marrow derived dendritic cells (BMDC) of a STING agonist to cytotoxic T cells (CD8^+ T cells).
# Specifically, mouse bone marrow-derived cells were obtained from the femur and tibia of 8-week-old female C57BL/6 mice. 2×10^6 of cells were cultured in 2 mL of a MLR medium (RPMI 1640 medium supplemented with 10% FBS, 1% 1M HEPES, 1% glutamine, and 1% antibiotic-antimycotic) supplemented with 10 ng/ml mGM-CSF and 5 ng/ml IL-4 to be differentiated into dendritic cells (BMDC). On the third day from the start of cell culturing, 2 mL of the MLR medium was added. Additionally, on the sixth day, 2×10^6 dendritic cells were treated with 50 μg/mL OVA protein and/or 100 ng/ml lipopolysaccharide (LPS), and cGAMP and/or the compound represented by Formula 1 at various concentrations. Thereafter, the cells were cultured at 37° C. in a 5% CO2 incubator for 24 hours, and then flow cytometry of dendritic cell activation markers (CD80, CD86, MHC II) was performed. Subsequently, 5×10^4 dendritic cells were incubated with 2×10^5 CFSE-labeled OT-1 T cells (OVA-specific CD8^+ T cells) to observe OT-1 T cell proliferation.
compound,measurement,setting,value
"COc1ccc(CC2=CN(c3ccc(C(=O)NC[C@H]4CCCO4)cc3[N+](=O)[O-])[C@H](C(C)C)C(=O)N2Cc2ccc(O)cc2)cc1 [Formula 1, 4-((R)-4-(4-hydroxybenzyl)-2-isopropyl-5-(4-methoxybenzyl)-3-oxo-3,4-dihydropyrazin-1 (2H)-yl)-3-nitro-N-(((R)-tetrahydrofuran-2-yl)methyl)benzamide]",TRIM29-mediated lysine 48 polymerized multi-ubiquitination of STING,[1],inhibited
same,OT-1 T cell proliferation (BMDC activation by cGAMP and antigen presentation efficacy),[2],promoted cell proliferation in a concentration-dependent manner
